Experimental data: the NIST ThermoML archive (doi:10.1016/j.jct.2008.06.009)
Numbers after ± are expanded uncertainties.

Conditions: Liquid, Bellows volumetry

N [ammonia]
mass density [kg/m3]
Conditions	450 K	500 K
30000 kPa	355.3 ± 1.7	–
40000 kPa	403.7 ± 1.9	–
50000 kPa	433.4 ± 2.1	350.9 ± 1.7
60000 kPa	455.2 ± 2.2	384.9 ± 1.8
70000 kPa	472.6 ± 2.3	410.1 ± 2
80000 kPa	487.4 ± 2.3	430.2 ± 2.1
90000 kPa	500.2 ± 2.4	446.9 ± 2.1
100000 kPa	511.7 ± 2.5	461.5 ± 2.2
120000 kPa	531.4 ± 2.6	485.8 ± 2.3
140000 kPa	548.2 ± 2.6	505.9 ± 2.4
160000 kPa	563.1 ± 2.7	523.1 ± 2.5
180000 kPa	576.3 ± 2.8	538.3 ± 2.6
200000 kPa	588.2 ± 2.8	551.9 ± 2.6
